Measured values from patent publication US11793774B2, “Chiral beta-hydroxyethylamines and their use in the treatment of hyperglycemia” (ATROGI AB, priority 2017, dated 2023).

Assays:
L6-myotubes = assay: Glucose uptake (3H-2-deoxy-glucose) in differentiated L6-myotubes; type: cell-based; conditions: agonist final concentration 1×10^−5, 3H-2-deoxy-glucose uptake, relative to isoproterenol
Method: L6-myoblasts were grown in Dulbecco's Modified Eagle's Medium (DMEM) containing 4.5 g/l glucose supplemented with 10% fetal bovine serum, 2 mM L-Glutamine, 50 U/ml penicillin, 50 μg/ml streptomycin and 10 mM HEPES. Cells were plated at 1×10^5 cells per ml in 24-well plates. After reaching 90% confluence the cells were grown in medium containing 2% FBS for 7 days where upon cells differentiated into myotubes. Differentiated L6-myotubes were serum-starved over night in medium containing 0.5% fatty-acid free BSA and stimulated with agonist, final concentration 1×10^−5. After 1 h 40 min cells were washed with warm, glucose free medium or PBS and another portion of agonist was added to glucose free medium. After 20 min the cells were exposed to 50 nM ^3H-2-deoxy-glucose for another 10 min before washed in ice cold glucose free medium or PBS and lysed in 0.2 M NaOH for 1 h in 60° C.

[1] = test system: Intracellular cAMP levels; assay: Measurement of intracellular cAMP levels in differentiated cells (alpha screen cAMP kit); type: cell-based; conditions: agonist final concentration 1×10^−5, 15 min, 1 mM IBMX, relative to isoproterenol
Method: L6-myoblasts were grown in Dulbecco's Modified Eagle's Medium (DMEM) containing 4.5 g/l glucose supplemented with 10% fetal bovine serum, 2 mM L-Glutamine, 50 U/ml penicillin, 50 μg/ml streptomycin and 10 mM HEPES. Cells were plated at 1×10^5 cells per ml in 24-well plates. After reaching 90% confluence the cells were grown in medium containing 2% FBS for 7 days where upon cells differentiated into myotubes.
Differentiated cells were serum-starved over night and stimulated with agonist, final concentration 1×10^−5, for 15 min in stimulation buffer (HBSS supplemented with 1% BSA, 5 mM HEPES and 1 mM IBMX, pH 7.4) The medium was then aspirated and to end the reaction 100 μL of 95% EtOH was added to each well of a 24-well plate and cells were kept in −20° C. over night. The EtOH was let to evaporate and 500 μL of lysis buffer (1% BSA, 5 mM HEPES and 0.3% Tween-20, pH 7.4) was added to each well before put in −80° C. for 30 min and then kept in −20° C. Intracellular cAMP levels were detected using an alpha screen cAMP kit (6760635D from Perkin Elmer). The activity for each compound is compared to that of isoproterenol.

Row | SMILES | Biological example 1: glucose uptake activity compared to that of isoproterenol (L6-myotubes) | Biological example 2: intracellular cAMP activity compared to that of isoproterenol [1]
1 | CCC[C@@H](C)NC[C@H](O)c1ccc(O)cc1 [Example 2, 4-((R)-1-Hydroxy-2-(((R)-pentan-2-yl)amino)ethyl)phenol Hemisulphate] | ++ (between 75 and 50%) | + (between 50 and 25%)
2 | CCC[C@@H](C)NC[C@H](O)c1ccc(F)cc1 [Example 5, (R)-1-(4-Fluorophenyl)-2-(((R)-pentan-2-yl)amino)ethan-1-ol] | ++ (between 75 and 50%) | − (less than 25%)
3 | CCC[C@@H](C)NC[C@H](O)c1cccc(F)c1 [Example 6, (R)-1-(3-fluorophenyl)-2-(((R)-pentan-2-yl)amino)ethan-1-ol] | ++ (between 75 and 50%) | − (less than 25%)
4 | CCC[C@@H](C)NC[C@H](O)c1cccc(O)c1 [Example 4, 3-((R)-1-Hydroxy-2-(((R)-pentan-2-yl)amino)ethyl)phenol Hemisulphate] | +++ (activity of more than 75% of that of isoproterenol) | ++ (between 75 and 50%)
